Data set [1] relates to MV-4-11 cells. Briefly: CellTiter-Glo 2.0 cell viability assay, MV-4-11. Format: cell-based, human. As to conditions: MV-4-11, up to 1–10 μM.
Data set [2] concerns the target T1, VHL with Brd4^BD2 L387A (Homo sapiens, UniProt O60885+P40337, L387A).
T1 construct: N-terminally His6-tagged VHL (54–213); His6 (N, cleaved yes); made in house; host or cells: E. coli
Briefly: FP competitive binding assay, ternary complex binding (compound preincubated with Brd4^BD2 L387A).

The target of data set [3] is T2, VHL (VCB protein) (Homo sapiens, UniProt P40337).
T2 construct: N-terminally His6-tagged VHL (54–213); His6 (N, cleaved yes); made in house; host or cells: E. coli
Briefly: FP competitive binding assay, binary binding. The conditions noted are these: compound alone; mean ±S.E.M., N = 4; read-out: binary affinity to VHL Kd.

Experimental findings from PMC8558867, “Development of BromoTag: A “Bump-and-Hole”–PROTAC System to Induce Potent, Rapid, and Selective Degradation of Tagged Target Proteins” (Journal of Medicinal Chemistry, 2021) are described below.

What is called Kd is the constant that tells how readily two partners part at equilibrium. For the compound `CC[C@@H](C(=O)OCCOCCOCCOCC(=O)N[C@H](C(=O)N1C[C@H](O)C[C@H]1C(=O)NCc1ccc(-c2scnc2C)cc1)C(C)(C)C)[C@@H]1N=C(c2ccc(Cl)cc2)c2c(sc(C)c2C)-n2c(C)nnc21` [AGB1 (46), (S)-13-((2S,4R)-4-Hydroxy-2-((4-(4-methylthiazol-5-yl)benzyl)carbamoyl)pyrrolidine-1-carbonyl)-14,14-dimethyl-11-oxo-3,6,9-trioxa-12-azapentadecyl (R)-2-((S)-4-(4-chlorophenyl)-2,3,9-trimethyl-6H-thieno[3,2-f][1,2,4]triazolo[4,3-a][1,4]diazepin-6-yl)butanoate], the cytotoxicity entry in data set [1] is on record as “lack of cytotoxicity”. Besides, in data set [2] (cooperativity, Kd binary/Kd ternary, supplementary CSV), the “α (FP binding)” value is 11.1. Besides, the Kd in data set [2] (preincubated with Brd4^BD2 L387A, mean ±S.E.M., N = 4, read-out: ternary binding affinity Kd) was found to be 11 nM; in data set [3], 125 nM. In data set [2] (α = Kd binary/Kd ternary), the “cooperativity (α)” value was found to be 11.1.
